What was measured:
[1] = molecular target: T1, N. fowleri peptidylprolyl isomerase (NfPPI) (Naegleria fowleri, UniProt A0A2H4A315); test: X-ray crystal structure; format: binding; details: active site; Fig 4C legend calls the 6MKE ligand FK506-AN
T1 construct: gene NF0084240; N-terminal His tag (vector pBG1861), E. coli BL21(DE3)R3 Rosetta; 119 residues; FKBP family; chains A-D in crystal
T1 sequence (A0A2H4A315 1-119): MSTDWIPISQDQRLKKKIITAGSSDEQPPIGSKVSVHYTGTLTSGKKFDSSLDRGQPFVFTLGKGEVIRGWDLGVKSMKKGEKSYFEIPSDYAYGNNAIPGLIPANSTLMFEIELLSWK

[2] = molecular target: T2, N. fowleri S-adenosyl-L-homocysteine hydrolase (NfSAHH) (Naegleria fowleri, UniProt A0A1Z0YU84); test: X-ray crystal structure; format: binding
T2 construct: gene NF0035640; N-terminal His tag (vector pBG1861), E. coli BL21(DE3)R3 Rosetta; 472 residues; homo-tetramer in asymmetric unit
T2 sequence (A0A1Z0YU84 1-472): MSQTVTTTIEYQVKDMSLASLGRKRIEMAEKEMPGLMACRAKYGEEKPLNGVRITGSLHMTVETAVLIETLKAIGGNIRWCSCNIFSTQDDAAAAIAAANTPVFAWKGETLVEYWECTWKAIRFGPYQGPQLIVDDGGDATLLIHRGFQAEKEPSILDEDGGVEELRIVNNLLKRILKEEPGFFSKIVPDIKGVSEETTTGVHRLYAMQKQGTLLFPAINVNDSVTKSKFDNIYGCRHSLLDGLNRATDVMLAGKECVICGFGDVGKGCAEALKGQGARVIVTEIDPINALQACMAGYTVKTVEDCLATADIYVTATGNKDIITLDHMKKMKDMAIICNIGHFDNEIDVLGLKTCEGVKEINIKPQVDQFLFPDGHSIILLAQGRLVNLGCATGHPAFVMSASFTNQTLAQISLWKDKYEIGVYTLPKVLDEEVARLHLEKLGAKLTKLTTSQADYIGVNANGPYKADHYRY

`C=CC[C@@H]1/C=C(\C)C[C@H](C)C[C@H](OC)[C@H]2O[C@@](O)(C(=O)C(=O)N3CCCC[C@H]3C(=O)O[C@H](/C(C)=C/[C@@H]3CC[C@@H](O)[C@H](OC)C3)[C@H](C)[C@@H](O)CC1=O)[C@H](C)C[C@@H]2OC` [FK506] was tested, and the X-ray crystal structure [1] was “Quaternary structure of NfPPI (6MKE)”.

`NC(=O)c1ccc[n+]([C@@H]2O[C@H](COP(=O)(O)OP(=O)(O)OC[C@H]3O[C@@H](n4cnc5c(N)ncnc54)[C@H](O)[C@@H]3O)[C@@H](O)[C@H]2O)c1` [NAD] was tested, and the X-ray crystal structure ([2]; with adenosine, 2.0 Å omit map shown) was “contains the adenosine substrate and NAD cofactors bound to the active site”.

For `Nc1ncnc2c1ncn2[C@@H]1O[C@H](CO)[C@@H](O)[C@H]1O` [adenosine], the X-ray crystal structure ([2]; with NAD, active site, closed conformation) was “contains the adenosine substrate and NAD cofactors bound to the active site”.

From paper PMC7990177, “Naegleria fowleri: Protein structures to facilitate drug discovery for the deadly, pathogenic free-living amoeba” (PLoS ONE, 2021)
